Results taken from patent US7420056B2, “Substituted bicyclic imidazo-3-ylamine compounds” (Gruenenthal GmbH, priority 2004, dated 2008).

Target: mGluR5 receptor (Sus scrofa, UniProt I3LUI7)
Assay: Affinity for the mGluR5 receptor: inhibition of 3[H]-MPEP binding in pig brain homogenate
Conditions: 10 μM compound, 5 nM 3[H]-MPEP, read-out: mGluR5 receptor inhibition of ^3[H]-MPEP binding [10 μM] in % at a concentration of the example compounds of 10 μM
How it was run: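 Test compounds were screened at 10 μM for displacement of 5 nM [3H]-MPEP from pig brain homogenate (450 μg protein, pH 8.0 Hepes buffer) over 60 min at room temperature. After filtration, scintillation counting gave the read-out. 10 μM unlabelled MPEP set nonspecific binding.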

mGluR5 receptor, sequence (I3LUI7 19-1212): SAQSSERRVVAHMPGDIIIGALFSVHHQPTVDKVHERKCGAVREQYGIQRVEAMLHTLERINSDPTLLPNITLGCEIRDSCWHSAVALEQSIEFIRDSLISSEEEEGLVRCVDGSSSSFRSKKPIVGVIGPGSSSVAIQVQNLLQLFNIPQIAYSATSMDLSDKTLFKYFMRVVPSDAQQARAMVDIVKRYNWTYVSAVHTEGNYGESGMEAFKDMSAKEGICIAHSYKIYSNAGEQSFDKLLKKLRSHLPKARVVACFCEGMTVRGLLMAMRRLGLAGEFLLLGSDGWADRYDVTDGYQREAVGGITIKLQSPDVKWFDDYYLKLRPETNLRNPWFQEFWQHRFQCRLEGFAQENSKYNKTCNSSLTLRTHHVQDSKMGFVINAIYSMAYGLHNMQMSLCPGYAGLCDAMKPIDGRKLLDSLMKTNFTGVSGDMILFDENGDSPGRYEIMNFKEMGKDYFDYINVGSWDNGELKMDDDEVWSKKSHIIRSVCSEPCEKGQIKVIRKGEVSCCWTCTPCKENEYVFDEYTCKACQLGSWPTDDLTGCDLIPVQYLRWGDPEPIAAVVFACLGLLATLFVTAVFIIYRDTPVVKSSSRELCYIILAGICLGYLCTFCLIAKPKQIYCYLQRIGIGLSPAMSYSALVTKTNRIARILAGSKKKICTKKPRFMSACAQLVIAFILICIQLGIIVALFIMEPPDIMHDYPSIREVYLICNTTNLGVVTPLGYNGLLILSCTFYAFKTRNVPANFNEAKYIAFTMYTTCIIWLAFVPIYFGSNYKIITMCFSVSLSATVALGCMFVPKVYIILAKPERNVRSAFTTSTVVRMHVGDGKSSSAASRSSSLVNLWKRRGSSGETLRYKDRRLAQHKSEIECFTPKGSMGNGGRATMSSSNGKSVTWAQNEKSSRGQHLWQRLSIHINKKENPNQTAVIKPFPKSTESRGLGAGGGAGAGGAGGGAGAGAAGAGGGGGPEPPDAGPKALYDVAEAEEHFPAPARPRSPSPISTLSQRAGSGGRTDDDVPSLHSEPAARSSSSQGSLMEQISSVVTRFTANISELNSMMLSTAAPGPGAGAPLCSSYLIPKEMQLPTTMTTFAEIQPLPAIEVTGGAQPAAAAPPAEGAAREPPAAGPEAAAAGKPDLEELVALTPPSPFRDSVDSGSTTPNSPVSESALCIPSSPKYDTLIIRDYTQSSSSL

inhibition at 10 µM [%]	Structure (SMILES)
93	Cc1ccn2c(NC(C)(C)C)c(-c3ccc(C#Cc4ccccn4)cc3)nc2c1 [Example 278, N-tert-butyl-7-methyl-2-(4-(pyridin-2-ylethynyl)phenyl)imidazo[1,2-a]pyridin-3-amine]
67	Cc1ccn2c(Nc3ccc(F)cc3)c(-c3ccc(C#Cc4ccccn4)o3)nc2c1 [Example 279, N-(4-fluorophenyl)-7-methyl-2-(5-(pyridin-2-ylethynyl)furan-2-yl)imidazo[1,2-a]pyridin-3-amine]
31	Cc1cccn2c(NC3CCCCC3)c(-c3ccc(C#Cc4ccccc4)nc3)nc12 [Example 280, N-cyclohexyl-8-methyl-2-(6-(phenylethynyl)pyridin-3-yl)imidazo[1,2-a]pyridin-3-amine]
83	C(#Cc1ccc(-c2nc3ccccn3c2NC2CCCC2)cn1)c1ccccc1 [Example 281, N-cyclopentyl-2-(6-(phenylethynyl)pyridin-3-yl)imidazo[1,2-a]pyridin-3-amine]
72	CC(C)(C)Nc1c(-c2ccc(C#Cc3ccccc3)nc2)nc2ccccn12 [Example 282, N-tert-butyl-2-(6-(phenylethynyl)pyridin-3-yl)imidazo[1,2-a]pyridin-3-amine]
82	C(#Cc1ccc(-c2nc3ccccn3c2NC2CCCCC2)cn1)c1ccccc1 [Example 283, N-cyclohexyl-2-(6-(phenylethynyl)pyridin-3-yl)imidazo[1,2-a]pyridin-3-amine]
68	CC(C)(C)CC(C)(C)Nc1c(-c2ccc(C#Cc3ccccc3)nc2)nc2ccccn12 [Example 284, 2-(6-(phenylethynyl)pyridin-3-yl)-N-(2,4,4-trimethylpentan-2-yl)imidazo[1,2-a]pyridin-3-amine]
88	CC(C)(C)Nc1c(-c2ccc(C#Cc3ccccn3)o2)nc2ccccn12 [Example 285, N-tert-butyl-2-(5-(pyridin-2-ylethynyl)furan-2-yl)imidazo[1,2-a]pyridin-3-amine]
72	C(#Cc1ccc(-c2nc3ccccn3c2NC2CCCCC2)o1)c1ccccn1 [Example 286, N-cyclohexyl-2-(5-(pyridin-2-ylethynyl)furan-2-yl)imidazo[1,2-a]pyridin-3-amine]
30	Fc1ccc(Nc2c(-c3ccc(C#Cc4ccccn4)o3)nc3ccccn23)cc1 [Example 287, N-(4-fluorophenyl)-2-(5-(pyridin-2-ylethynyl)furan-2-yl)imidazo[1,2-a]pyridin-3-amine]
89	Cc1cccc(C#Cc2cccc(-c3nc4ccccn4c3NC3CCCCC3)c2)n1 [Example 288, N-cyclohexyl-2-(3-((6-methylpyridin-2-yl)ethynyl)phenyl)imidazo[1,2-a]pyridin-3-amine]
51	Cc1cccc(C#Cc2cccc(-c3nc4ccccn4c3NC(C)(C)CC(C)(C)C)c2)n1 [Example 289, 2-(3-((6-methylpyridin-2-yl)ethynyl)phenyl)-N-(2,4,4-trimethylpentan-2-yl)imidazo[1,2-a]pyridin-3-amine]
88	Cc1cccc(C#Cc2cccc(-c3nc4cccc(C)n4c3NC(C)(C)C)c2)n1 [Example 290, N-tert-butyl-5-methyl-2-(3-((6-methylpyridin-2-yl)ethynyl)phenyl)imidazo[1,2-a]pyridin-3-amine]
92	Cc1cccc(C#Cc2cccc(-c3nc4cccc(C)n4c3NC(C)(C)CC(C)(C)C)c2)n1 [Example 291, 5-methyl-2-(3-((6-methylpyridin-2-yl)ethynyl)phenyl)-N-(2,4,4-trimethylpentan-2-yl)imidazo[1,2-a]pyridin-3-amine]
88	Cc1cc(C)n2c(NC3CCCCC3)c(-c3cccc(C#Cc4ccccn4)c3)nc2n1 [Example 292, N-cyclohexyl-5,7-dimethyl-2-(3-(pyridin-2-ylethynyl)phenyl)imidazo[1,2-a]pyrimidin-3-amine]
70	Cc1cc(C)n2c(NC3CCCCC3)c(-c3ccc(C#Cc4ccccc4)nc3C)nc2n1 [Example 293, N-cyclohexyl-5,7-dimethyl-2-(2-methyl-6-(phenylethynyl)pyridin-3-yl)imidazo[1,2-a]pyrimidin-3-amine]
79	Cc1cc(C)n2c(NC3CCCC3)c(-c3ccc(C#Cc4ccccn4)o3)nc2n1 [Example 294, N-cyclopentyl-5,7-dimethyl-2-(5-(pyridin-2-ylethynyl)furan-2-yl)imidazo[1,2-a]pyrimidin-3-amine]
84	Cc1cc(C)n2c(NC(C)(C)C)c(-c3ccc(C#Cc4ccccn4)o3)nc2n1 [Example 295, N-tert-butyl-5,7-dimethyl-2-(5-(pyridin-2-ylethynyl)furan-2-yl)imidazo[1,2-a]pyrimidin-3-amine]
85	Cc1cccn2c(Nc3ccc(F)cc3)c(-c3cccc(C#Cc4ccccn4)c3)nc12 [Example 296, N-(4-fluorophenyl)-8-methyl-2-(3-(pyridin-2-ylethynyl)phenyl)imidazo[1,2-a]pyridin-3-amine]

inhibition at 10 µM [%]	Structure (SMILES)
80	Cc1cccn2c(NC3CCCCC3)c(-c3ccc(C#Cc4ccccn4)cc3)nc12 [Example 297, N-cyclohexyl-8-methyl-2-(4-(pyridin-2-ylethynyl)phenyl)imidazo[1,2-a]pyridin-3-amine]
95	CCc1ccn2c(NC3CCCCC3)c(-c3ccc(C#Cc4ccccn4)s3)nc2c1 [Example 298, N-cyclohexyl-7-ethyl-2-(5-(pyridin-2-ylethynyl)thiophen-2-yl)imidazo[1,2-a]pyridin-3-amine]
86	CCc1ccn2c(NC(C)(C)CC(C)(C)C)c(-c3ccc(C#Cc4ccccn4)s3)nc2c1 [Example 299, 7-ethyl-2-(5-(pyridin-2-ylethynyl)thiophen-2-yl)-N-(2,4,4-trimethylpentan-2-yl)imidazo[1,2-a]pyridin-3-amine]
50	CCc1ccn2c(NC3CCCCC3)c(-c3cccc(C#Cc4ccccn4)c3)nc2c1 [Example 300, N-cyclohexyl-7-ethyl-2-(3-(pyridin-2-ylethynyl)phenyl)imidazo[1,2-a]pyridin-3-amine]
78	CCc1ccn2c(NC3CCCC3)c(-c3ccc(C#Cc4ccccn4)cc3)nc2c1 [Example 301, N-cyclopentyl-7-ethyl-2-(4-(pyridin-2-ylethynyl)phenyl)imidazo[1,2-a]pyridin-3-amine]
55	CCc1ccn2c(NC3CCCC3)c(-c3ccc(C#Cc4ccccc4)nc3)nc2c1 [Example 302, N-cyclopentyl-7-ethyl-2-(6-(phenylethynyl)pyridin-3-yl)imidazo[1,2-a]pyridin-3-amine]
67	CCc1ccn2c(NC(C)(C)C)c(-c3ccc(C#Cc4ccccc4)nc3)nc2c1 [Example 303, N-tert-butyl-7-ethyl-2-(6-(phenylethynyl)pyridin-3-yl)imidazo[1,2-a]pyridin-3-amine]
94	CCc1ccn2c(NC(C)(C)C)c(-c3ccc(C#Cc4ccccn4)o3)nc2c1 [Example 304, N-tert-butyl-7-ethyl-2-(5-(pyridin-2-ylethynyl)furan-2-yl)imidazo[1,2-a]pyridin-3-amine]
75	CC(C)c1ccn2c(NC(C)(C)CC(C)(C)C)c(-c3ccc(C#Cc4ccccn4)s3)nc2c1 [Example 305, 7-isopropyl-2-(5-(pyridin-2-ylethynyl)thiophen-2-yl)-N-(2,4,4-trimethylpentan-2-yl)imidazo[1,2-a]pyridin-3-amine]
76	CC(C)c1ccn2c(NC(C)(C)C)c(-c3cccc(C#Cc4ccccn4)c3)nc2c1 [Example 306, N-tert-butyl-7-isopropyl-2-(3-(pyridin-2-ylethynyl)phenyl)imidazo[1,2-a]pyridin-3-amine]
88	CC(C)c1ccn2c(NC(C)(C)C)c(-c3ccc(C#Cc4ccccn4)cc3)nc2c1 [Example 307, N-tert-butyl-7-isopropyl-2-(4-(pyridin-2-ylethynyl)phenyl)imidazo[1,2-a]pyridin-3-amine]
70	CC(C)c1ccn2c(NC3CCCCC3)c(-c3ccc(C#Cc4ccccn4)o3)nc2c1 [Example 308, N-cyclohexyl-7-isopropyl-2-(5-(pyridin-2-ylethynyl)furan-2-yl)imidazo[1,2-a]pyridin-3-amine]
82	Cc1cccc(C#Cc2cccc(-c3nc4cc(C(C)C)ccn4c3NC(C)(C)C)c2)n1 [Example 309, N-tert-butyl-7-isopropyl-2-(3-((6-methylpyridin-2-yl)ethynyl)phenyl)imidazo[1,2-a]pyridin-3-amine]
86	Clc1ccc2nc(-c3ccc(C#Cc4ccccn4)s3)c(NC3CCCC3)n2c1 [Example 310, 6-chloro-N-cyclopentyl-2-(5-(pyridin-2-ylethynyl)thiophen-2-yl)imidazo[1,2-a]pyridin-3-amine]
86	CC(C)(C)Nc1c(-c2ccc(C#Cc3ccccn3)s2)nc2ccc(Cl)cn12 [Example 311, N-tert-butyl-6-chloro-2-(5-(pyridin-2-ylethynyl)thiophen-2-yl)imidazo[1,2-a]pyridin-3-amine]
64	Clc1ccc2nc(-c3cccc(C#Cc4ccccn4)c3)c(NC3CCCCC3)n2c1 [Example 312, 6-chloro-N-cyclohexyl-2-(3-(pyridin-2-ylethynyl)phenyl)imidazo[1,2-a]pyridin-3-amine]
33	CC(C)(C)CC(C)(C)Nc1c(-c2cccc(C#Cc3ccccn3)c2)nc2ccc(Cl)cn12 [Example 313, 6-chloro-2-(3-(pyridin-2-ylethynyl)phenyl)-N-(2,4,4-trimethylpentan-2-yl)imidazo[1,2-a]pyridin-3-amine]
79	CC(C)(C)Nc1c(-c2ccc(C#Cc3ccccn3)cc2)nc2ccc(Cl)cn12 [Example 314, N-tert-butyl-6-chloro-2-(4-(pyridin-2-ylethynyl)phenyl)imidazo[1,2-a]pyridin-3-amine]
